Results from patent US11292807B2 (OCEANS LTD., priority 2015, dated 2022).

Key:
MDA-MB [1] = conditions: MDA-MB
MDA-MB [2] = assay: cells; conditions: Homo sapiens, read-out: Average cell viability, MDA-MB; 100 ug/mL
PC3 = assay: CIMA assay, cell viability, PC3
[3] = tested on: U373 (glioblastoma-astrocytoma); assay: CIMA assay, cell viability, U373
[4] = tested on: SKOV3 (ovarian adenocarcinoma); assay: CIMA assay, cell viability, SKOV3
[5] = tested on: THP-1 (acute monocytic leukemia); assay: CIMA assay, cell viability, THP-1
[6] = CIMA assay, cell viability, CCD1079SK; conditions: human, CCD1079SK fibroblasts (noncancerous, proliferating), Average cell viability, CCD; 100 ug/mL
Description: (§1) Stock solutions of the extracts were prepared in dimethylsulfoxide (DMSO) at 10 mg/mL and stored in 200 μl aliquots at −20° C. until analysis. This preparation ensured that the DMSO delivered to cells in culture never exceeded 1%.
(§2) Prepared extracts were assessed following chronic exposure conditions in which cells were seeded at 2×10^3 cells/well (96 well-plate) and incubated with test compounds for 72 h. Each compound was evaluated over a range of concentrations (0, 10, 25, 50 or 100 μg/ml). Cell proliferation was initially assessed using a standard colorimetric indicator of metabolic activity (CIMA) assay. In this assay, tetrazole reduction was evaluated as a measure of metabolic function that evaluates mitochondrial activity to determine the extent of cell proliferation within a culture. This assay is based on the reduction of yellow tetrazolium salt to purple formazan by mitochondrial reductases enzyme in viable cells, resulting in a color changed that confers a change in absorbance.

[7] = tested on: CCD1079SK (fibroblast, noncancerous but proliferating); assay: CIMA assay, cell viability, CCD1079SK; conditions: CCD; 1.00 ug/mL (so in the source)
Description: as §1, §2

A549 (lung carcinoma) = assay: CIMA assay (colorimetric indicator of metabolic activity), cell viability, A549

CCCCCC(O)/C=C/C=C/CCCCCCCC(=O)O (centres unmarked) [77-31-34-6 A, 13-hydroxyoctadeca-9E,11E-dienoic acid]
Fold change in viability AVG (MDA-MB [1]; 1.00 ug/mL (so in the source)): 0.13
In vitro activity against cancer cell lines, MDA-MB AVG (MDA-MB [1]; 100 ug/mL): 0.13
viability at 100 µg/mL (MDA-MB [2]): 12%
viability at 100 µg/mL (PC3; Homo sapiens, PC-3, read-out: Average cell viability, PC3, 100 ug/mL): 5%
Fold change in viability AVG (PC3; PC3, 1.00 ug/mL (so in the source)): 0.05
In vitro activity against cancer cell lines, PC3 AVG (PC3; PC3, 100 ug/mL): 0.05
viability at 100 µg/mL ([3]; Homo sapiens, U373 MG, read-out: Average cell viability, U373, 100 ug/mL): 4%
Fold change in viability AVG ([3]; U373, 1.00 ug/mL (so in the source)): 0.04
In vitro activity against cancer cell lines, U373 AVG ([3]; U373, 100 ug/mL): 0.04
viability at 100 µg/mL ([4]; Homo sapiens, SK-OV-3, read-out: Average cell viability, SKOV, 100 ug/mL): 53%
Fold change in viability AVG ([4]; SKOV, 1.00 ug/mL (so in the source)): 0.57
In vitro activity against cancer cell lines, SKOV AVG ([4]; SKOV, 100 ug/mL): 0.57
viability at 100 µg/mL ([5]; Homo sapiens, THP-1, read-out: Average cell viability, THP-1, 100 ug/mL): 6%
Fold change in viability AVG ([5]; THP-1, 1.00 ug/mL (so in the source)): 0.07
In vitro activity against cancer cell lines, THP-1 AVG ([5]; THP-1, 100 ug/mL): 0.07
viability at 72 h, 100 ug/mL [6]: 13%
Fold change in viability AVG [7]: 0.14
Fold change in viability AVG (A549 (lung carcinoma); A549, 1.00 ug/mL (so in the source)): 0.08
In vitro activity against cancer cell lines, A549 AVG (A549 (lung carcinoma); A549, 100 ug/mL): 0.08
viability at 100 µg/mL (A549 (lung carcinoma); Homo sapiens, A549, read-out: Average cell viability, A549, 100 ug/mL): 7%
